What was measured:
Assay in all cases: relative viability (nuclei count vs DMSO), 5 days (fraction); higher = more cells survive
Wnt-C59 + Dasatinib = compound: CC1=NC=CC(=C1)C2=CC=C(C=C2)CC(=O)NC3=CC=C(C=C3)C4=CN=CC=C4 [Wnt-C59] + Cc1nc(Nc2ncc(C(=O)Nc3c(C)cccc3Cl)s2)cc(N2CCN(CCO)CC2)n1 [Dasatinib] (partner 0.075 µM)
How it was run: (§1)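 A single step with final 0.05% Triton X-100, 1% formaldehyde and 1 ug/ml Hoechst fixed the cells and stained nuclei 5 days after treatment. Lung cancer cell lines in 1536-well plates had been treated by pin tool the day after seeding with one drug alone or a fixed anchor-drug dose plus five library-drug doses (not always all listed) in √10 steps, and nuclei were counted on 4× images. Relative viability is the ratio of nuclei in treated wells to nuclei in vehicle wells, taken as the median of duplicate plates.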

Lapatinib + Trametinib = compound: CS(=O)(=O)CCNCc1ccc(-c2ccc3ncnc(Nc4ccc(OCc5cccc(F)c5)c(Cl)c4)c3c2)o1 [Lapatinib] + CC(=O)Nc1cccc(-n2c(=O)n(C3CC3)c(=O)c3c(Nc4ccc(I)cc4F)n(C)c(=O)c(C)c32)c1 [Trametinib] (partner 0.02 µM)
How it was run: as §1

Lapatinib + Navitoclax = compound: CS(=O)(=O)CCNCc1ccc(-c2ccc3ncnc(Nc4ccc(OCc5cccc(F)c5)c(Cl)c4)c3c2)o1 [Lapatinib] + CC1(C)CCC(c2ccc(Cl)cc2)=C(CN2CCN(c3ccc(C(=O)NS(=O)(=O)c4ccc(N[C@H](CCN5CCOCC5)CSc5ccccc5)c(S(=O)(=O)C(F)(F)F)c4)cc3)CC2)C1 [Navitoclax] (partner 0.5 µM)
How it was run: as §1

Lapatinib + Alpelisib = compound: CS(=O)(=O)CCNCc1ccc(-c2ccc3ncnc(Nc4ccc(OCc5cccc(F)c5)c(Cl)c4)c3c2)o1 [Lapatinib] + Cc1nc(NC(=O)N2CCC[C@H]2C(N)=O)sc1-c1ccnc(C(C)(C)C(F)(F)F)c1 [Alpelisib] (partner 2 µM)
How it was run: as §1

Cell Line	relative viability (Wnt-C59 + Dasatinib; first compound 0.001 µM)	relative viability (Wnt-C59 + Dasatinib; first compound 0.01 µM)	relative viability (Wnt-C59 + Dasatinib; first compound 0.03162 µM)	relative viability (Wnt-C59 + Dasatinib; first compound 0.1 µM)	relative viability (Lapatinib + Trametinib; first compound 0.06325 µM)	relative viability (Lapatinib + Trametinib; first compound 0.2 µM)	relative viability (Lapatinib + Trametinib; first compound 0.6325 µM)	relative viability (Lapatinib + Trametinib; first compound 2 µM)	relative viability (Lapatinib + Navitoclax; first compound 0.02 µM)	relative viability (Lapatinib + Navitoclax; first compound 0.06325 µM)	relative viability (Lapatinib + Navitoclax; first compound 0.2 µM)	relative viability (Lapatinib + Navitoclax; first compound 0.6325 µM)	relative viability (Lapatinib + Navitoclax; first compound 2 µM)	relative viability (Lapatinib + Alpelisib; first compound 0.06325 µM)	relative viability (Lapatinib + Alpelisib; first compound 0.2 µM)	relative viability (Lapatinib + Alpelisib; first compound 0.6325 µM)	relative viability (Lapatinib + Alpelisib; first compound 2 µM)	relative viability (Lapatinib + Trametinib; first compound 0.02 µM)	relative viability (Lapatinib + Alpelisib; first compound 0.02 µM)
HOP-62	0.696	0.66	0.716	0.697	0.378	0.343	0.472	0.293	0.672	0.993	1.09	1.1	0.99	0.618	0.861	1.14	0.856		
NCI-H1793	0.431		0.468	0.355	0.416	0.469	0.406	0.394				0.329	0.292			0.563	0.384		
LXF-289	0.251	0.25	0.231	0.221	0.689	0.68	0.652	0.631	0.901	0.928	0.957	0.94	0.85	1.04	1.06	0.987	0.922	0.713	0.987
COR-L 105	0.275	0.357	0.308	0.304	0.419	0.402	0.363	0.393	0.701	0.744	0.77	0.574	0.302	0.765	1.03	0.804	0.294	0.433	0.872
HCC-827	0.386	0.305	0.366	0.428	0.487	0.536	0.517	0.408	1	0.944	1.08	0.974	0.981	0.957	0.957	0.914	0.434	0.479	0.89
PC-14	0.309	0.257	0.242	0.241	0.674	0.796	0.827	0.0695	0.956	0.991	0.958	0.985	0.839	0.915	0.883	0.864	0.783	0.768	0.823
NCI-H1915	0.315	0.316	0.303	0.317	0.29	0.3	0.292	0.304		0.822	0.752	0.79	0.81	1.05	1.08	1.03	1.02		
NCI-H2228	0.503	0.429	0.615	0.524	0.441	0.609	0.583	0.27	0.838	0.807	0.809	1.28	0.912	0.688	0.811	0.907	0.59	0.112	0.675
EPLC-272H	0.399	0.269	0.399	0.36	0.25	0.281	0.246	0.293		1.13	0.869	0.991	0.961	0.807	0.819	0.746	0.821		

From the supplement of paper PMC10307832
